Test results published in PubChem BioAssay AID1963984 (Molecular Pharmacology Branch, DTP, NCI, 2024).

Tested on: 233499-124-R-J3-PDC spheroids with HUVEC/MSC, viability
Test: Anticancer human tumor 233499-124-R-J3-PDC patient-derived colon adenocarcinoma cell line growth inhibition [PI3K]
Details: for IC50: curve of first compound; for viability, T/C: stronger effect = lower value
Text: Combinatorial screen of targeted agents with the PI3K inhibitors inavolisib, alpelisib, duvelisib, and copanlisib in multi-cell type tumor spheroids
A high-throughput screen of multi-cell type tumor spheroids was designed to identify active combinations of targeted small molecules and PI3K pathway inhibitors. Complex spheroids include a stromal component modeled by human endothelial cells (HUVEC) and fibroblasts modeled by human mesenchymal stem cells (MSCs). The concentration ranges selected for each drug and investigational agent were based upon clinically achievable concentrations if the clinical Cmax of the agent was known.
Compounds. The drugs and investigational agents: inavolisib (NSC800729), alpelisib (NSC765974), duvelisib (NSC772469), copanlisib (NSC816437), ipatasertib (NSC767898), afuresertib (NSC778305), talazoparib (NSC767125), sapanisertib (NSC764658), selumetinib (NSC741078), tovorafenib (DAY101, NSC766906), vemurafenib (NSC761431), ravoxertinib (NSC781343), sotorasib (NSC818433), MRTX1133 (NSC 836407), abemaciclib (NSC 768073), palbociclib (NSC758247), venetoclax (NSC 766270), SY5609 (NSC837396), enzalutamide (NSC755605), and darolutamide (NSC825331), were obtained from the National Cancer Institute (NCI) Developmental Therapeutics Program Chemical Repository. The FDA-approved anticancer drug set is available from the NCI Developmental Therapeutics Program. […] The stock solutions were prepared in dimethyl sulfoxide (DMSO, Sigma-Aldrich, St. Louis, MO, cat. D2650) at 800-fold the tested concentration and stored at -70 degrees C prior to their use. All drugs and investigational agents were tested over a range starting from a high concentration at or near the clinical Cmax and decreasing in half-log increments. If the clinical Cmax for an agent had not been determined, the highest concentration tested was 10 microM.
Cell Culture. All cells were maintained in an incubator at 37 degrees C and 5% CO2 with 95% humidity. The PDC lines were cultured according to standard operating procedures established by the NCI PDMR (https://pdmr.cancer.gov/sops/default.htm). All PDCs were thawed and cultured in Matrigel-coated flasks prepared with a working solution of 1X Ham's F-12 nutrient mix, without supplementation (Invitrogen, Waltham, MA, cat. 11765054), 100 U/mL penicillin-streptomycin (Invitrogen, cat. 15140122), and 2.5% Matrigel (Corning Inc., Corning, NY, cat. 354248) for the first three passages. The 354836-022-R-J1-PDC, 475296-252-R-J1-PDC, and 997726-040-R-J2-PDC lines were cultured in 6A media, which includes advanced DMEM/F-12 (Thermo Fisher Scientific, cat. 12634028), 10 mM HEPES (Thermo Fisher Scientific, cat. 15630080), 1X GlutaMAX supplement (Thermo Fisher Scientific, cat. 35050061), 0.1 mg/mL primocin (InvivoGen, San Diego, CA, cat. ant-pm-2), 10% defined fetal bovine serum, heat inactivated (HyClone Laboratories Inc., Logan, UT, cat. SH30070.03HI), 50% L-WRN conditioned media (ATCC, cat. CRL-3276), 1.25 mM N-Acetyl-L-cysteine (Sigma-Aldrich, cat. A9165), 10 mM nicotinamide (Sigma-Aldrich, cat. N0636), 1X B-27 supplement (Thermo Fisher Scientific, cat. 17504044), 1X N-2 supplement (Thermo Fisher Scientific, cat. 17502048), and 10 microM Y-27632 dihydrochloride (Tocris Bioscience, Bristol, United Kingdom, cat. 1254). The 624824-186-R-J2-PDC line was cultured in 6C/Colon 1B media, which includes all 6A media components plus 50 ng/mL human EGF recombinant protein (Thermo Fisher Scientific, cat. PHG0311). […]

[1] = second compound 0.00316 µM, first compound 0.0316 µM
[2] = second compound 0.00316 µM, first compound 0.1 µM
[3] = second compound 0.01 µM, first compound 0.0316 µM
[4] = second compound 0.01 µM, first compound 0.1 µM
[5] = second compound 0.0316 µM, first compound 0.0316 µM
[6] = second compound 0.0316 µM, first compound 0.1 µM
[7] = second compound 0.1 µM, first compound 0.0316 µM
[8] = second compound 0.1 µM, first compound 0.1 µM
[9] = second compound 0.316 µM, first compound 0.0316 µM
[10] = second compound 0.316 µM, first compound 0.1 µM
[11] = second compound 1 µM, first compound 0.0316 µM
[12] = second compound 1 µM, first compound 0.1 µM
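Also: spheroids exposed to agents for seven days before readout.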
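For viability, T/C in this document: percent viability relative to DMSO vehicle control taken as 100%.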

With `CC(C)n1nc(-c2ccc3oc(N)nc3c2)c2c(N)ncnc21` + CC(Nc1ccc2c(c1)OCCn1cc(N3C(=O)OCC3C(F)F)nc1-2)C(N)=O the IC50 (second compound 0.00316 µM) was > 100 nM, the IC50 (second compound 0.01 µM) was > 100 nM and the IC50 (second compound 0.0316 µM) was > 100 nM. For the same molecule, the IC50 (second compound 0.1 µM) was 53.3 nM, the IC50 (second compound 0.316 µM) was 15.1 nM and the IC50 (second compound 1 µM) was 3.69 nM. It also gave a viability, T/C (second compound 0.00316 µM, first compound 0.000316 µM) of 73.5%, a viability, T/C (second compound 0.00316 µM, first compound 0.001 µM) of 90.1% and a viability, T/C (second compound 0.00316 µM, first compound 0.00316 µM) of 88%. The viability, T/C (second compound 0.00316 µM, first compound 0.01 µM) was 95.7%, the viability, T/C [1] was 81% and the viability, T/C [2] was 50.2%. It also gave a viability, T/C (second compound 0.01 µM, first compound 0.000316 µM) of 97.8%, a viability, T/C (second compound 0.01 µM, first compound 0.001 µM) of 92.7% and a viability, T/C (second compound 0.01 µM, first compound 0.00316 µM) of 105%. For the same molecule, the viability, T/C (second compound 0.01 µM, first compound 0.01 µM) was 89.4%, the viability, T/C [3] was 78.3% and the viability, T/C [4] was 57.5%. The viability, T/C (second compound 0.0316 µM, first compound 0.000316 µM) was 103%, the viability, T/C (second compound 0.0316 µM, first compound 0.001 µM) was 83% and the viability, T/C (second compound 0.0316 µM, first compound 0.00316 µM) was 85.9%. The viability, T/C (second compound 0.0316 µM, first compound 0.01 µM) was 70.3%, the viability, T/C [5] was 91% and the viability, T/C [6] was 60.8%. It also gave a viability, T/C (second compound 0.1 µM, first compound 0.000316 µM) of 84%, a viability, T/C (second compound 0.1 µM, first compound 0.001 µM) of 61.3% and a viability, T/C (second compound 0.1 µM, first compound 0.00316 µM) of 66%. The viability, T/C (second compound 0.1 µM, first compound 0.01 µM) was 77%, the viability, T/C [7] was 66.6% and the viability, T/C [8] was 29.1%. For the same molecule, the viability, T/C (second compound 0.316 µM, first compound 0.000316 µM) was 82.7%, the viability, T/C (second compound 0.316 µM, first compound 0.001 µM) was 49.3% and the viability, T/C (second compound 0.316 µM, first compound 0.00316 µM) was 73.5%. The viability, T/C (second compound 0.316 µM, first compound 0.01 µM) was 46.6%, the viability, T/C [9] was 52.8% and the viability, T/C [10] was 24.2%. The viability, T/C (second compound 1 µM, first compound 0.000316 µM) was 49.8%, the viability, T/C (second compound 1 µM, first compound 0.001 µM) was 48.4% and the viability, T/C (second compound 1 µM, first compound 0.00316 µM) was 59.2%. For the same molecule, the viability, T/C (second compound 1 µM, first compound 0.01 µM) was 41.2%, the viability, T/C [11] was 26.3% and the viability, T/C [12] was 12.3%.

`CCCS(=O)(=O)Nc1ccc(F)c(C(=O)c2c[nH]c3ncc(-c4ccc(Cl)cc4)cc23)c1F` + CC(Nc1ccc2c(c1)OCCn1cc(N3C(=O)OCC3C(F)F)nc1-2)C(N)=O showed an IC50 (second compound 0.00316 µM) of 5620 nM, an IC50 (second compound 0.01 µM) of 5140 nM and an IC50 (second compound 0.0316 µM) of 4720 nM. It also gave an IC50 (second compound 0.1 µM) of 5020 nM, an IC50 (second compound 0.316 µM) of 3380 nM and an IC50 (second compound 1 µM) of 1790 nM. It also gave a viability, T/C [1] of 80%, a viability, T/C [2] of 97.9% and a viability, T/C (second compound 0.00316 µM, first compound 0.316 µM) of 98.6%. The viability, T/C (second compound 0.00316 µM, first compound 1 µM) was 105%, the viability, T/C (second compound 0.00316 µM, first compound 3.16 µM) was 104% and the viability, T/C (second compound 0.00316 µM, first compound 10 µM) was 2.87%. The viability, T/C [3] was 90.2%, the viability, T/C [4] was 94.5% and the viability, T/C (second compound 0.01 µM, first compound 0.316 µM) was 97.1%. The viability, T/C (second compound 0.01 µM, first compound 1 µM) was 98.2%, the viability, T/C (second compound 0.01 µM, first compound 3.16 µM) was 84.9% and the viability, T/C (second compound 0.01 µM, first compound 10 µM) was 2.03%. The viability, T/C [5] was 77.3%, the viability, T/C [6] was 90.3% and the viability, T/C (second compound 0.0316 µM, first compound 0.316 µM) was 85.8%. The viability, T/C (second compound 0.0316 µM, first compound 1 µM) was 101%, the viability, T/C (second compound 0.0316 µM, first compound 3.16 µM) was 75.8% and the viability, T/C (second compound 0.0316 µM, first compound 10 µM) was 1.54%. For the same molecule, the viability, T/C [7] was 84.8%, the viability, T/C [8] was 83.9% and the viability, T/C (second compound 0.1 µM, first compound 0.316 µM) was 88.5%. For the same molecule, the viability, T/C (second compound 0.1 µM, first compound 1 µM) was 88.3%, the viability, T/C (second compound 0.1 µM, first compound 3.16 µM) was 82.8% and the viability, T/C (second compound 0.1 µM, first compound 10 µM) was 0.93%. It also gave a viability, T/C [9] of 86.6%, a viability, T/C [10] of 66.6% and a viability, T/C (second compound 0.316 µM, first compound 0.316 µM) of 66.9%. For the same molecule, the viability, T/C (second compound 0.316 µM, first compound 1 µM) was 69.2%, the viability, T/C (second compound 0.316 µM, first compound 3.16 µM) was 54.5% and the viability, T/C (second compound 0.316 µM, first compound 10 µM) was 4.16%. The viability, T/C [11] was 73%, the viability, T/C [12] was 45.4% and the viability, T/C (second compound 1 µM, first compound 0.316 µM) was 54.9%. The viability, T/C (second compound 1 µM, first compound 1 µM) was 61%, the viability, T/C (second compound 1 µM, first compound 3.16 µM) was 41.8% and the viability, T/C (second compound 1 µM, first compound 10 µM) was 2.26%.
